{"source": "patent US5877026A", "about": "“Analgesic peptides from venom of Grammostola spatulata and use thereof” (priority 1998, dated 1999)", "format_in_all_cases": "in vivo, rat", "key": {"[1]": {"tested_on": "Sprague-Dawley rats", "test": "von Frey filament threshold", "excerpt": "In this test filaments of increasing thickness are applied to the dorsal surface of a hindlimb until the rat either voluntarily removes the appendage with a forcible escape movement or vocalizes. The thickness of the filaments are arbitrarily labelled with a value which can be transformed into a grams force reading according to the following equation: [formula] Data are expressed either as absolute gram force values or a percentage of the maximum possible effect (MPE) as described in the following equation: [formula]"}, "[2]": {"tested_on": "Sprague Dawley rats", "test": "Acute inflammatory pain, carrageenan paw withdrawal latency", "conditions": "for Mean Latency Time In Seconds ± SEM, 30 minutes post treatment / Mean Latency Time In Seconds ± SEM, 60 minutes post treatment: 3 nmol intrathecal cannula; for Mean Latency Time In Seconds ± SEM, 30 minutes post treatment: given after 150 min post carrageenan; for Mean Latency Time In Seconds ± SEM, 60 minutes post treatment: predetermined cut-off value 20.8 sec", "experimental": "Tissue injury results in inflammation and hyperalgesia (i.e. increased magnitude or duration of pain response to supra threshold noxious stimuli) at both the site of injury and at adjacent tissue sites. To assess the anti-hyperalgesic activity of GsAF II in inflammatory pain conditions, paw withdrawal latencies were determined in adult 350-400 gram male Sprague Dawley rats following the unilateral injection of carrageenan, a seaweed extract, into the hindpaw in accordance with the method of Hargreaves et al, Pain, 32:77-88, 1988. Briefly, withdrawal latencies are measured by placing the rat on a glass plate and focusing radiant heat from the underside of the plate toward the hindpaw surface. Latencies values are recorded in seconds to withdrawal of the hindpaw from the surface of the plate. Basal measurements are made prior to injection of the carrageenan (4 mg/hindpaw), followed by a measurement at 150 min post carrageenan injection to obtain the level of hyperalgesic response. Subsequent to the second measurement, GsAF II or vehicle (i.e. 0:1% BSA/saline) is administered through an indwelling intrathecal cannula positioned within the lumbar enlargement of the spinal cord. Anti-hyperalgesic activity is determined by measuring paw withdrawal latencies at various time intervals following compound administration. Concurrent with the paw withdrawal latencies, physical measurements of paw volume and paw temperature are recorded to detect anti-inflammatory and anti-pyretic activities."}, "[3]": {"tested_on": "opioid receptors", "test": "Opioid receptor testing (opioid antagonist pretreatment)", "experimental": "Animals were then tested in the tail flick test (Example 3) and von Frey tests (Example 5)."}, "[4]": {"tested_on": "Sprague Dawley rats", "conditions": "i.th.; two treatment arms"}, "[5]": {"conditions": "3 nmol group (n = 4), before compound administration"}}, "note": "Where no end group is shown, it is not given here.", "data": [{"substance": "YCQKWMWTCDEERKCCEGLVCRLWCKKKIEW (cysteine pairing not given here) [GsAF II]", "values": [{"measurement": "MPE, von Frey threshold", "setting": "[1]; 2.33 nanomole (9.27 micrograms), 30 minutes post injection", "result": 83, "unit": "%"}, {"measurement": "rats demonstrating maximal analgesic activity (100% MPE), von Frey", "setting": "[1]; 2.33 nanomole (higher dose), 30 minutes post injection", "result": 75, "unit": "%"}, {"measurement": "MPE, von Frey threshold", "setting": "[1]; 583 picomole (2.32 micrograms), 30 minutes post injection", "result": 48, "unit": "%"}, {"measurement": "Mean Latency Time In Seconds ± SEM, 150 minutes post carrageenan injection", "setting": "[2]; [5]", "result": "3.0 ± 0.81", "unit": "s"}, {"measurement": "Mean Latency Time In Seconds ± SEM, base latency prior to carrageenan injection", "setting": "[2]; [5]", "result": "8.3 ± 1.2", "unit": "s"}, {"measurement": "Mean Latency Time In Seconds ± SEM, 30 minutes post treatment", "setting": "[2]", "result": "17.82 ± 3.78", "unit": "s"}, {"measurement": "Mean Latency Time In Seconds ± SEM, 30 minutes post treatment", "setting": "[2]; listed as GsAFII", "result": "17.82 ± 3.78", "unit": "s"}, {"measurement": "Mean Latency Time In Seconds ± SEM, 60 minutes post treatment", "setting": "[2]", "result": 20.8, "unit": "s"}, {"measurement": "Mean Latency Time In Seconds ± SEM, 60 minutes post treatment", "setting": "[2]; listed as GsAFII", "result": "20.8 ± 0.00", "unit": "s"}, {"measurement": "confounding motor deficits or overt negative side effects", "setting": "[2]; 3 nmoles intrathecal", "result": "no indication"}, {"measurement": "hyperalgesic, thermal-induced response", "setting": "[2]; 3 nmoles intrathecal", "result": "completely reversed"}, {"measurement": "paw temperature", "setting": "[2]; 3 nmoles intrathecal", "result": "No significant reduction"}, {"measurement": "paw volume", "setting": "[2]; 3 nmoles intrathecal", "result": "No significant reduction"}]}, {"substance": "Tyr-Cys-Gln-Lys-Trp-Leu-Trp-Thr-Cys-Asp-Ser-Glu-Arg-Lys-Cys-Cys-Glu-Asp-Met-Val-Cys-Arg-Leu-Trp-Cys-Lys-Lys-Arg-Leu-NH2 (YCQKWLWTCDSERKCCEDMVCRLWCKKRL-NH2; cysteine pairing not given here) [GsAF I]", "values": [{"measurement": "MPE, von Frey threshold", "setting": "[1]; 18 picomole (6.6 nanograms), one hour pretreatment", "result": 22, "unit": "% MPE"}, {"measurement": "MPE, von Frey threshold", "setting": "[1]; 18 picomoles (66 nanograms), 30 minutes post injection", "result": 24, "unit": "% MPE"}, {"measurement": "confounding side effects", "setting": "[1]; 180 and 18 picomoles", "result": "No confounding side effects were present"}, {"measurement": "MPE, von Frey threshold", "setting": "[1]; 180 picomole, one hour pretreatment", "result": 100, "unit": "% MPE"}, {"measurement": "MPE, von Frey threshold", "setting": "[1]; 180 picomoles (666 nanograms), 30 minutes post injection", "result": 93, "unit": "% MPE"}, {"measurement": "effect of B-funaltrexamine pretreatment on analgesic activity", "setting": "[3]; B-funaltrexamine 5 micrograms i.th. 18 hours prior, hot plate test or formalin test", "result": "failed to inhibit"}, {"measurement": "effect of intrathecal naloxone on analgesic response", "setting": "[3]; naloxone 50 μg i.th. immediately prior, 180 pmoles i.th., measured 10 minutes later", "result": "failed to inhibit"}, {"measurement": "effect of naloxone pretreatment on analgesic activity", "setting": "[3]; naloxone 10mg/kg subcutaneous 5 minutes prior, 180 pmoles i.th., measured 10 minutes later, tail flick and von Frey tests", "result": "failed to inhibit"}, {"measurement": "dose response properties, morphine treatment versus saline arm (cross tolerance)", "setting": "[4]", "result": "not significantly different"}]}]}
